According to patent US9708336B2, “Metallo-beta-lactamase inhibitors” (priority 2014, dated 2017):
pIC50: −log10 of the molar value. Read-outs that look alike come from different tables or passages of the source.

What was measured:
NDM-1 = NDM-1 (Klebsiella pneumoniae, UniProt C7C422); experiment: biochemical; type: biochemical; conditions: NDM-1 enzyme, CCF2-FA substrate; read-out: NDM-1 IC50
IMP-1 = IMP-1 (Serratia marcescens, UniProt P52699); experiment: biochemical; type: biochemical; conditions: IMP-1 enzyme, CCF2-FA substrate; read-out: IMP-1 IC50
IMP-1, sequence (P52699 whole entry, looked up): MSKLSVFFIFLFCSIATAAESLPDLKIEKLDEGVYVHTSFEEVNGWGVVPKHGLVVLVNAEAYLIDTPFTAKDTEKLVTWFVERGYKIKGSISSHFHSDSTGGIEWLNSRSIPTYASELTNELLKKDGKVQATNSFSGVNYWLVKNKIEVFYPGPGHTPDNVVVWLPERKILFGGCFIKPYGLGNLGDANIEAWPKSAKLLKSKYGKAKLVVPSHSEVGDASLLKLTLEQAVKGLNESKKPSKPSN

VIM-1 = VIM-1 (Pseudomonas aeruginosa (strain ATCC 15692 / DSM 22644 / CIP 104116 / JCM 14847 / LMG 12228 / 1C / PRS 101 / PAO1), UniProt A0A0F7KYQ8); experiment: Enzyme activity: determination of IC50, fluorescence assay with CCF2-FA substrate (VIM-1); type: biochemical; conditions: CCF2-FA substrate
[1] = test system: Escherichia coli expressing NDM-1 (CLB30016); experiment: Antibiotic potentiation activity: synergistic concentration (MITC95) with imipenem, OD600 growth; type: cell-based; conditions: (CLB30016, NDM-1), 95% growth inhibition
Procedure, shortened: (§1)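 Clinical MBL-producing strains (E. coli NDM-1, S. marcescens IMP-1, K. pneumoniae VIM-1) from overnight plates were diluted 1:100 into 1.1×CAMHB. Compound was tested with imipenem at 4 μg/ml (optionally 1 μg/ml) or without it. After 22–24 h at 35 °C, growth was read as OD600.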

[2] = test system: Klebsiella pneumoniae expressing VIM-1 (IHMA599644); experiment: as above; type: cell-based; conditions: Klebsiella pneumoniae IHMA599644 (VIM-1), 95% growth inhibition
Procedure, shortened: as §1

[3] = test system: Serratia marcescens expressing IMP-1 (CL5741); experiment: as above; type: cell-based; conditions: Serratia marcescens CL5741 (IMP-1), 95% growth inhibition
Procedure, shortened: as §1

[4] = VIM-1 enzyme, read-out: VIM-1 IC50

NDM-1, sequence (C7C422 whole entry, looked up, species assumed): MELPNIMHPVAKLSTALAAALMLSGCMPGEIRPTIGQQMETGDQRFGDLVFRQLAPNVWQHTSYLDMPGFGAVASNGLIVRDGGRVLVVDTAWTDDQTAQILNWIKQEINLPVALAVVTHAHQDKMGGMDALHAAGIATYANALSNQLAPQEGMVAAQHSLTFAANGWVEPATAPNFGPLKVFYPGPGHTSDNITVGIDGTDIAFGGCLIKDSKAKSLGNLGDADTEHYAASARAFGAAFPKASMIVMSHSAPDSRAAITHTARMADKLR

SMILES: Nc1ccc(-c2ccc(C[C@H]3CC[C@@H](N)CC3)c(S(N)(=O)=O)c2-c2nnn[nH]2)cn1 [Example 574, 6-(((1s,4s)-4-aminocyclohexyl)methyl)-3-(6-aminopyridin-3-yl)-2-(2H-tetrazol-5-yl)benzenesulfonamide]
- pIC50 (NDM-1): 8.83
- pIC50 (IMP-1): 7.45
- pIC50 (VIM-1; [4]): 8.10
- Escherichia coli MITC95 [1]: 0.3906 µM
- Klebsiella pneumoniae MITC95 [2]: 3.125 µM
- Serratia marcescens MITC95 [3]: 3.125 µM

SMILES: Nc1ccc(-c2ccc(C[C@H]3CC[C@H](N)CC3)c(S(N)(=O)=O)c2-c2nnn[nH]2)cn1 [Example 575, 6-(((1r,4r)-4-aminocyclohexyl)methyl)-3-(6-aminopyridin-3-yl)-2-(1H-tetrazol-5-yl)benzenesulfonamide]
- pIC50 (NDM-1): 8.50
- pIC50 (IMP-1): 7.23
- pIC50 (VIM-1; [4]): 8.16
- Escherichia coli MITC95 [1]: 0.3906 µM
- Klebsiella pneumoniae MITC95 [2]: 6.25 µM
- Serratia marcescens MITC95 [3]: 3.125 µM

SMILES: Nc1ccc(-c2ccc(CC3CCNCC3)c(S(N)(=O)=O)c2-c2nnn[nH]2)cn1 [Example 576, 3-(6-amino-3-pyridyl)-6-(4-piperidylmethyl)-2-(1H-tetrazol-5-yl)benzenesulfonamide]
- pIC50 (NDM-1): 7.91
- pIC50 (IMP-1): 6.78
- pIC50 (VIM-1; VIM-1 IC50, VIM-1 enzyme): 7.61
- Escherichia coli MITC95 [1]: 0.5969 µM
- Klebsiella pneumoniae MITC95 [2]: 4.24 µM
- Serratia marcescens MITC95 [3]: 6.323 µM

SMILES: Nc1ccc(-c2ccc(CC[C@H]3CC[C@H](N)CC3)c(S(N)(=O)=O)c2-c2nnn[nH]2)cn1 [Example 577, 6-(2-((1r,4s)-4-aminocyclohexyl)ethyl)-3-(6-aminopyridin-3-yl)-2-(1H-tetrazol-5-yl)benzenesulfonamide]
- pIC50 (NDM-1): 8.61
- pIC50 (IMP-1): 7.53
- pIC50 (VIM-1; [4]): 7.98
- Escherichia coli MITC95 [1]: 0.7813 µM
- Klebsiella pneumoniae MITC95 [2]: 12.5 µM
- Serratia marcescens MITC95 [3]: 3.125 µM

SMILES: Nc1ccc(-c2ccc(CC[C@H]3CC[C@@H](N)CC3)c(S(N)(=O)=O)c2-c2nnn[nH]2)cn1 [Example 578, 6-(2-((1s,4r)-4-aminocyclohexyl)ethyl)-3-(6-aminopyridin-3-yl)-2-(1H-tetrazol-5-yl)benzenesulfonamide]
- pIC50 (NDM-1): 8.73
- pIC50 (IMP-1): 7.33
- pIC50 (VIM-1; [4]): 7.95
- Escherichia coli MITC95 [1]: 3.125 µM
- Klebsiella pneumoniae MITC95 [2]: 50 µM
- Serratia marcescens MITC95 [3]: 12.5 µM

SMILES: NC[C@H]1CC[C@H](Cc2ccc(-c3ccc(N)nc3)c(-c3nnn[nH]3)c2S(N)(=O)=O)CC1 [Example 579, 6-(((1r,4r)-4-(aminomethyl)cyclohexyl)methyl)-3-(6-aminopyridin-3-yl)-2-(1H-tetrazol-5-yl)benzenesulfonamide]
- pIC50 (NDM-1): 8.79
- pIC50 (IMP-1): 7.75
- pIC50 (VIM-1; VIM-1 IC50, VIM-1 enzyme): 8.51
- Escherichia coli MITC95 [1]: 0.7813 µM
- Klebsiella pneumoniae MITC95 [2]: 12.5 µM
- Serratia marcescens MITC95 [3]: 3.125 µM

SMILES: NC[C@H]1CC[C@@H](Cc2ccc(-c3ccc(N)nc3)c(-c3nnn[nH]3)c2S(N)(=O)=O)CC1 [Example 580, 6-(((1s,4s)-4-(aminomethyl)cyclohexyl)methyl)-3-(6-aminopyridin-3-yl)-2-(1H-tetrazol-5-yl)benzenesulfonamide]
- pIC50 (NDM-1): 9.06
- pIC50 (IMP-1): 7.64
- pIC50 (VIM-1; VIM-1 IC50, VIM-1 enzyme): 7.87
- Escherichia coli MITC95 [1]: 1.563 µM
- Klebsiella pneumoniae MITC95 [2]: 12.5 µM
- Serratia marcescens MITC95 [3]: 6.25 µM

SMILES: Nc1ccc(-c2ccc(CCC3CCNCC3)c(S(N)(=O)=O)c2-c2nnn[nH]2)cn1 [Example 581, 3-(6-aminopyridin-3-yl)-6-(2-(piperidin-4-yl)ethyl)-2-(1H-tetrazol-5-yl)benzenesulfonamide]
- pIC50 (NDM-1): 8.08
- pIC50 (IMP-1): 6.57
- pIC50 (VIM-1; [4]): 7.43
- Escherichia coli MITC95 [1]: 0.3906 µM
- Klebsiella pneumoniae MITC95 [2]: 12.5 µM
- Serratia marcescens MITC95 [3]: 6.25 µM

SMILES: NS(=O)(=O)c1c(C[C@H]2CC[C@H](N)CC2)ccc(-c2ccc(C3CCNC3)cc2)c1-c1nn[nH]n1 (stereo partly drawn) [Example 582, 4-(((1r,4r)-4-aminocyclohexyl)methyl)-4′-(pyrrolidin-3-yl)-2-(2H-tetrazol-5-yl)-[1,1′-biphenyl]-3-sulfonamide]
- pIC50 (NDM-1): 8.40
- pIC50 (IMP-1): 7.76
- pIC50 (VIM-1; [4]): 8.80
- Escherichia coli MITC95 [1]: 0.7813 µM
- Klebsiella pneumoniae MITC95 [2]: 1.563 µM
- Serratia marcescens MITC95 [3]: 1.563 µM

SMILES: NS(=O)(=O)c1c(C[C@H]2CC[C@@H](N)CC2)ccc(-c2ccc(C3CCNC3)cc2)c1-c1nnn[nH]1 (stereo partly drawn) [Example 583, 4-(((1s,4s)-4-aminocyclohexyl)methyl)-4′-(pyrrolidin-3-yl)-2-(1H-tetrazol-5-yl)-[1,1′-biphenyl]-3-sulfonamide]
- pIC50 (NDM-1): 8.19
- pIC50 (IMP-1): 7.92
- pIC50 (VIM-1; [4]): 7.63
- Escherichia coli MITC95 [1]: 3.125 µM
- Klebsiella pneumoniae MITC95 [2]: 6.25 µM
- Serratia marcescens MITC95 [3]: 6.25 µM

SMILES: NS(=O)(=O)c1c(CC[C@H]2CC[C@H](N)CC2)ccc(-c2ccc(C3CCNC3)cc2)c1-c1nnn[nH]1 (stereo partly drawn) [Example 584, 4-(2-((1r,4s)-4-aminocyclohexyl)ethyl)-4′-(pyrrolidin-3-yl)-2-(1H-tetrazol-5-yl)-[1,1′-biphenyl]-3-sulfonamide]
- pIC50 (NDM-1): 8.69
- pIC50 (IMP-1): 7.99
- pIC50 (VIM-1; [4]): 8.79
- Escherichia coli MITC95 [1]: 1.563 µM
- Klebsiella pneumoniae MITC95 [2]: 6.25 µM
- Serratia marcescens MITC95 [3]: 1.563 µM

SMILES: NS(=O)(=O)c1c(CC[C@H]2CC[C@@H](N)CC2)ccc(-c2ccc(C3CCNC3)cc2)c1-c1nnn[nH]1 (stereo partly drawn) [Example 585, 4-(2-((1s,4r)-4-aminocyclohexyl)ethyl)-4′-(pyrrolidin-3-yl)-2-(1H-tetrazol-5-yl)-[1,1′-biphenyl]-3-sulfonamide]
- pIC50 (NDM-1): 8.66
- pIC50 (IMP-1): 7.77
- pIC50 (VIM-1; [4]): 8.34
- Escherichia coli MITC95 [1]: 0.7813 µM
- Klebsiella pneumoniae MITC95 [2]: 6.25 µM
- Serratia marcescens MITC95 [3]: 3.125 µM

SMILES: NC[C@H]1CC[C@H](Cc2ccc(-c3ccc(C4CCNC4)cc3)c(-c3nnn[nH]3)c2S(N)(=O)=O)CC1 (stereo partly drawn) [Example 586, 4-(((1r,4r)-4-(aminomethyl)cyclohexyl)methyl)-4′-(pyrrolidin-3-yl)-2-(1H-tetrazol-5-yl)-[1,1′-biphenyl]-3-sulfonamide]
- pIC50 (NDM-1): 8.63
- pIC50 (IMP-1): 8.15
- pIC50 (VIM-1; [4]): 8.93
- Escherichia coli MITC95 [1]: 0.7813 µM
- Klebsiella pneumoniae MITC95 [2]: 1.563 µM
- Serratia marcescens MITC95 [3]: 1.563 µM

SMILES: NC[C@H]1CC[C@@H](Cc2ccc(-c3ccc(C4CCNC4)cc3)c(-c3nnn[nH]3)c2S(N)(=O)=O)CC1 (stereo partly drawn) [Example 587, 4-(((1s,4s)-4-(aminomethyl)cyclohexyl)methyl)-4′-(pyrrolidin-3-yl)-2-(1H-tetrazol-5-yl)-[1,1′-biphenyl]-3-sulfonamide]
- pIC50 (NDM-1): 9.10
- pIC50 (IMP-1): 8.55
- pIC50 (VIM-1; [4]): 7.94
- Escherichia coli MITC95 [1]: 0.7813 µM
- Klebsiella pneumoniae MITC95 [2]: 6.25 µM
- Serratia marcescens MITC95 [3]: 1.563 µM

SMILES: NC[C@H]1CC[C@H](c2ccc(CC3CCNCC3)c(S(N)(=O)=O)c2-c2nn[nH]n2)CC1 [Example 589, 3-((1r,4r)-4-(aminomethyl)cyclohexyl)-6-(piperidin-4-ylmethyl)-2-(2H-tetrazol-5-yl)benzenesulfonamide]
- pIC50 (NDM-1): 8.06
- pIC50 (IMP-1): 6.83
- pIC50 (VIM-1; [4]): 7.03
- Escherichia coli MITC95 [1]: 1.172 µM
- Klebsiella pneumoniae MITC95 [2]: 9.375 µM
- Serratia marcescens MITC95 [3]: 4.688 µM

SMILES: NC[C@H]1CC[C@H](c2ccc(CC3CCNCC3)c(S(N)(=O)=O)c2-c2nn[nH]n2)CC1 [Example 590, 3-((1r,4r)-4-(aminomethyl)cyclohexyl)-6-(piperidin-4-ylmethyl)-2-(2H-tetrazol-5-yl)benzenesulfonamide]
- pIC50 (NDM-1): 8.08
- pIC50 (IMP-1): 7.61
- pIC50 (VIM-1; [4]): 8.08
- Escherichia coli MITC95 [1]: 1.172 µM
- Klebsiella pneumoniae MITC95 [2]: 2.344 µM
- Serratia marcescens MITC95 [3]: 2.344 µM

SMILES: NC[C@H]1CC[C@H](c2ccc(CCC3CCNCC3)c(S(N)(=O)=O)c2-c2nnn[nH]2)CC1 [Example 591, 3-((1r,4r)-4-(aminomethyl)cyclohexyl)-6-(2-(piperidin-4-yl)ethyl)-2-(1H-tetrazol-5-yl)benzenesulfonamide]
- pIC50 (NDM-1): 7.80
- pIC50 (IMP-1): 6.49
- pIC50 (VIM-1; [4]): 6.24
- Escherichia coli MITC95 [1]: 1.563 µM
- Klebsiella pneumoniae MITC95 [2]: 25 µM
- Serratia marcescens MITC95 [3]: 6.25 µM

SMILES: NC[C@H]1CC[C@@H](c2ccc(CCC3CCNCC3)c(S(N)(=O)=O)c2-c2nnn[nH]2)CC1 [Example 592, 3-((1s,4s)-4-(aminomethyl)cyclohexyl)-6-(2-(piperidin-4-yl)ethyl)-2-(1H-tetrazol-5-yl)benzenesulfonamide]
- pIC50 (NDM-1): 8.07
- pIC50 (IMP-1): 7.08
- pIC50 (VIM-1; [4]): 7.46
- Escherichia coli MITC95 [1]: 1.563 µM
- Klebsiella pneumoniae MITC95 [2]: 12.5 µM
- Serratia marcescens MITC95 [3]: 3.125 µM

SMILES: NCc1ccc(-c2ccc(CC3CCNCC3)c(S(N)(=O)=O)c2-c2nn[nH]n2)cc1 [Example 593, 4′-(aminomethyl)-4-(piperidin-4-ylmethyl)-2-(2H-tetrazol-5-yl)biphenyl-3-sulfonamide]
- pIC50 (NDM-1): 7.42
- pIC50 (IMP-1): 6.56
- pIC50 (VIM-1; [4]): 7.50
- Escherichia coli MITC95 [1]: 1.563 µM
- Klebsiella pneumoniae MITC95 [2]: 3.125 µM
- Serratia marcescens MITC95 [3]: 6.25 µM
